From patent US10889553B2, “Asymmetric triazole benzamide derivatives and the compositions and methods of treatment regarding the same” (NysnoBio Ireland DAC, priority 2017, dated 2021)
Read-outs that look alike come from different tables or passages of the source.

Experiment: Oral bioavailability (PO) and pharmacokinetics assay
Type: in vivo, mice
Conditions: mouse
Method: The pharmacokinetics and oral bioavailability of various compounds was evaluated following IV or PO administration to fasted male Sprague-Dawley […] (N=3/route/dose). […] For IV dosing, each compound was formulated in 10% DMA/15% Solutol/75% HPβ-CD (20%) as a 1 mg/mL solution for IV (3 mg/kg), for IP (5 mg/kg) and for PO (10 mg/kg) administrations.
Blood samples (0.250 mL) were collected into EDTA tubes then processed to generate plasma samples. Blood samples were collected at pre-dose, 0.083, 0.25, 0.5, 1, 2, 4, 8 and 24 hours post-dose administration. Plasma concentrations of each compound were determined using LC-MS/MS with a lower limit of quantitation of 1.0 ng/mL. The pharmacokinetic parameters were determined by non-compartmental methods using WinNonlin.
The pharmacokinetic parameters of each compound were determined by non-compartmental analysis (Model 201 for IV administration and Model 200 for PO administration) using WinNonlin Version 6.4 (Pharsight, Mountain View, Calif.). The area under the curve from the time of dosing to the last measurable concentration, AUC(0-t), was calculated by the linear trapezoidal rule. The area under the concentration-time curve extrapolated to infinity, AUC(0-∞), was calculated as follows: AUC(0-∞)=AUC(0-t)+Clast/k
Where Clast is the last measurable concentration and k is the first order rate constant associated with the terminal elimination phase, estimated by linear regression of log concentration versus time. The half-life (T1/2) of the terminal elimination phase was estimated based on the following equation: T1/2=0.693/k
K was determined based on at least three timepoints with R^2≥0.9. Additional parameters were calculated as follows: CL=Dose/AUC(0-∞)
Where CL is the clearance of the compound of the disclosure in L/hr/kg, Dose is the administered dose in mg/kg. Mean residence time (MRT) was calculated as follows: MRT=AUMC(0-∞)/AUC(0-∞)
Where area under the first moment curve extrapolated to infinity (AUMC0-∞)) was calculated as follows: AUMC(0-∞)=AUMClast+tlast*[…]+Clast/k^2
The steady state volume of distribution (Vss) was calculated as follows: Vss=CL×MRT.
The oral bioavailability based on AUC(0-t) was calculated as follows: F(%)=AUCPO/AUCIV×DoseIV/DosePO×100. For IV administration, the initial concentration, Co is reported and is an extrapolated value. For PO administration, the maximum concentration, Cmax is report and is an observed value.

[1] = male, Sprague-Dawley, plasma, IP (5 mg/kg)
[2] = male, Sprague-Dawley, plasma, IV bolus (3 mg/kg)
[3] = male, Sprague-Dawley, plasma, PO (10 mg/kg)

With `Cc1ccccc1C(=O)Nc1nc(NC(=O)c2ccccc2C)n(-c2ccc(OC(F)(F)F)cc2)n1` [Compound 42, N,N′-(1-(4-(trifluoromethoxy)phenyl)-1H-1,2,4-triazole-3,5-diyl)bis(2-methylbenzamide)] the bioavailability (male, Sprague-Dawley, plasma, intraperitoneal, 5 mg/kg, IP (5 mg/kg) vs IV, read-out: F (%)) was 50.3%, the half-life (male, Sprague-Dawley, plasma, ip, 5 mg/kg, IP (5 mg/kg)) was 47 h and the half-life (male, Sprague-Dawley, plasma, iv, 3 mg/kg) was 16 h. It also gave a half-life (male, Sprague-Dawley, plasma, iv, 3 mg/kg, IV bolus (3 mg/kg)) of 16.4 h, a Vd (male, Sprague-Dawley, plasma, iv, 3 mg/kg, IV bolus (3 mg/kg), read-out: Vss) of 1.3 L/kg and a bioavailability (male, Sprague-Dawley, plasma, oral, 10 mg/kg, PO (10 mg/kg) vs IV, read-out: F (%) oral bioavailability) of 21%. It also gave a half-life (male, Sprague-Dawley, plasma, po, 10 mg/kg, PO (10 mg/kg)) of 25 h, an AUC(0-t) [1] of 21500 ng·h/mL and a Cmax [1] of 1400 ng/mL. It also gave a Tmax [1] of 1.33 h, an AUC(0-t) [2] of 25700 ng·h/mL and a clearance [2] of 1.49 mL/min/kg. It also gave a C0 (male, Sprague-Dawley, plasma, IV bolus (3 mg/kg), extrapolated value) of 40500 ng/mL, an AUC(0-t) [3] of 18400 ng·h/mL and a Cmax [3] of 1060 ng/mL. For the same compound, the Tmax [3] was 3.67 h, the “Vss” value (IV bolus (3 mg/kg), 3 mg/kg) was 1.32 L/kg and the IV clearance (IV, in words) was “reasonable”. The “F (%) oral bioavailability” value (PO (10 mg/kg) vs IV, 10 mg/kg) was 21.4%.
